Test results reported in patent US10308643B2, “Heterocyclic compound” (Takeda Pharmaceutical Company Limited, priority 2015, dated 2019).

Key:
Type in all cases: biochemical
HDAC1 enzyme = molecular target: T1, HDAC1 enzyme (Homo sapiens, UniProt Q13547); test: HDAC1/6 Enzyme Inhibitory Assay (HDAC-Glo I/II Assay kit), HDAC1; conditions: 1 μM test compound; wells without enzyme = 100% inhibition; read-out: HDAC1 inhibitory rate (%) (1 μM)
T1 construct: transducing full length HDAC1 and HDAC6 genes into Sf-9 insect cells; GST; purchased SignalChem; host or cells: Sf-9 insect cells
T1 sequence (Q13547 whole entry): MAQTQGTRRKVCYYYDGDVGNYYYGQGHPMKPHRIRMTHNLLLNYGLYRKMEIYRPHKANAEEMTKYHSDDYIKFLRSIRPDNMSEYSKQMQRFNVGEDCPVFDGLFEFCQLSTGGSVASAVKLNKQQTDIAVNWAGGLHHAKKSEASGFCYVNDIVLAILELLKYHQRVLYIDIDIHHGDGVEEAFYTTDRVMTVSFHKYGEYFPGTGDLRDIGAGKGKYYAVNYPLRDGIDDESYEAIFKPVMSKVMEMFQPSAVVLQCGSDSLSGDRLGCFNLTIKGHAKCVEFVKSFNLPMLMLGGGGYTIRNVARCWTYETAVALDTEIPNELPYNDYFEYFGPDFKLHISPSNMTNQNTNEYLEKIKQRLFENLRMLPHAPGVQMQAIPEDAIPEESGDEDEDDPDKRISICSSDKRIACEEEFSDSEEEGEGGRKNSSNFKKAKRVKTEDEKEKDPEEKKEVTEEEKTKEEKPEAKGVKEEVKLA
Protocol: (§1) HDAC1/6 Enzyme Inhibitory Assay
(§2) HDAC1 enzyme and HDAC6 enzyme each prepared by transducing full length HDAC1 and HDAC6 genes into Sf-9 insect cells and purifying by GST affinity column were purchased from SignalChem. Using these enzymes, HDAC1 and/or HDAC6 enzyme inhibitory activities of the compound of the present invention were evaluated. Enzymes were used after preserved at −70° C. HDAC1 or HDAC6 enzyme inhibitory activity of the compound of the present invention was measured using HDAC-Glo™ I/II Assay kit (Promega) according to the following experimental method. The test compound diluted with assay buffer (24 mM Tris-HCl (pH 7.5), 1 mM MgCl2, 0.35 mM KCl, 135 mM NaCl, 0.6 mM Glutathione, 0.01% Tween-20) was added to a 384-well plate by each 2 μL. Then, HDAC1 or HDAC6 enzyme solution diluted with assay buffer was added thereto by each 4 μL, and the plate was incubated at room temperature for 60 min. After incubated, HDAC substrate-Developer solution prepared according to Promega protocol attached to the assay kit was added to the 384-well plate by each 2 μL, and the enzyme reaction was started. After reacting at room temperature for 20 min, luminescence level was measured using plate reader Envision (PerkinElmer). The inhibitory activity of each compound was calculated as a relative activity value when luminescence level in wells without enzyme is considered as 100% inhibition.

HDAC9 enzyme = molecular target: T2, HDAC9 enzyme (Homo sapiens, UniProt Q9UKV0); test: HDAC9 Enzyme Inhibitory Assay (HDAC-Glo class IIa); conditions: 1 μM test compound; wells without enzyme = 100% inhibition; read-out: HDAC9 inhibitory rate (%) (1 μM)
T2 construct: transducing full length HDAC9 gene into Sf-9 insect cells; made in house; host or cells: Sf-9 insect cells
T2 sequence (Q9UKV0 whole entry, species assumed): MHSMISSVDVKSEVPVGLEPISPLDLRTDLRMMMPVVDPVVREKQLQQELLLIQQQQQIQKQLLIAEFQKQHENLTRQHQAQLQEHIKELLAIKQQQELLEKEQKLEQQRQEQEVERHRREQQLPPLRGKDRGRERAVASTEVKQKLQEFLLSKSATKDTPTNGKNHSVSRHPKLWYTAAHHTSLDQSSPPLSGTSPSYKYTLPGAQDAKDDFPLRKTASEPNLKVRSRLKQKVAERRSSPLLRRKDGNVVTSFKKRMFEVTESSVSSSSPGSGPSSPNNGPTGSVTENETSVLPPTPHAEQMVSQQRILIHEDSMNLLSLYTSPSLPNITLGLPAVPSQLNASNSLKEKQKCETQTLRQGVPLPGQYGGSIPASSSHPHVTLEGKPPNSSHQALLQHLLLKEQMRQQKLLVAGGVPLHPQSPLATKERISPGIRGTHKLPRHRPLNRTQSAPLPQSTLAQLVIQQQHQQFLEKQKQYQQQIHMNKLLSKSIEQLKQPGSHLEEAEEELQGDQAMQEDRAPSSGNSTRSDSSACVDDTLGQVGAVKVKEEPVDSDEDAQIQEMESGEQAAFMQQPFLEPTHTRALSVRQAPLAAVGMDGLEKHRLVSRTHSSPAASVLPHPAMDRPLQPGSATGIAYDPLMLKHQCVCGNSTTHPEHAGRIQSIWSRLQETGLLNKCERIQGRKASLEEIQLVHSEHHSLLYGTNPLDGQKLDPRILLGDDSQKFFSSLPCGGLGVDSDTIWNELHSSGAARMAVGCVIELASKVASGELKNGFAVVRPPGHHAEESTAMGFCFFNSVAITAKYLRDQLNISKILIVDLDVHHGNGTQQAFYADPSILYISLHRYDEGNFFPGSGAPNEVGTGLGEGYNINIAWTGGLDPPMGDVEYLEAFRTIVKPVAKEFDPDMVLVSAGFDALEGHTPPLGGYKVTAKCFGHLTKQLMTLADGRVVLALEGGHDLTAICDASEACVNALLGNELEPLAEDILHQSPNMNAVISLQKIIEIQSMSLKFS
Protocol: HDAC9 Enzyme Inhibitory Assay
Enzyme was prepared by transducing full length HDAC9 gene into Sf-9 insect cells and purifying by Ni-NTA affinity column, and HDAC9 enzyme inhibitory activity was evaluated. Enzymes were used after preserved at −70° C. HDAC9 enzyme inhibitory activity of the test compound was measured using HDAC-Glo class IIa (Promega) according to the following experimental method. The test compound diluted with assay buffer (24 mM Tris-HCl (pH 7.5), 1 mM MgCl2, 0.35 mM KCl, 135 mM NaCl, 0.6 mM Glutathione, 0.01% Tween-20) was added to a 384-well plate by each 2 μL. Then, HDAC9 enzyme solution diluted with assay buffer was added thereto by each 2 μL, and the plate was incubated at room temperature for 60 min. After incubated, HDAC substrate-Developer solution prepared according to Promega protocol was added to the 384-well plate by each 4 μL, and the enzyme reaction was started. After reacting at room temperature for 20 min, luminescence level was measured using plate reader Envision (PerkinElmer). The inhibitory activity of each compound was calculated as a relative activity value when luminescence level in wells without enzyme is considered as 100% inhibition.

HDAC6 enzyme = molecular target: T3, HDAC6 enzyme (Homo sapiens, UniProt Q9UBN7); test: HDAC1/6 Enzyme Inhibitory Assay (HDAC-Glo I/II Assay kit), HDAC6; conditions: 1 μM test compound; wells without enzyme = 100% inhibition; read-out: HDAC6 inhibitory rate (%) (1 μM)
T3 construct: transducing full length HDAC1 and HDAC6 genes into Sf-9 insect cells; GST; purchased SignalChem; host or cells: Sf-9 insect cells
T3 sequence (Q9UBN7 1-1215): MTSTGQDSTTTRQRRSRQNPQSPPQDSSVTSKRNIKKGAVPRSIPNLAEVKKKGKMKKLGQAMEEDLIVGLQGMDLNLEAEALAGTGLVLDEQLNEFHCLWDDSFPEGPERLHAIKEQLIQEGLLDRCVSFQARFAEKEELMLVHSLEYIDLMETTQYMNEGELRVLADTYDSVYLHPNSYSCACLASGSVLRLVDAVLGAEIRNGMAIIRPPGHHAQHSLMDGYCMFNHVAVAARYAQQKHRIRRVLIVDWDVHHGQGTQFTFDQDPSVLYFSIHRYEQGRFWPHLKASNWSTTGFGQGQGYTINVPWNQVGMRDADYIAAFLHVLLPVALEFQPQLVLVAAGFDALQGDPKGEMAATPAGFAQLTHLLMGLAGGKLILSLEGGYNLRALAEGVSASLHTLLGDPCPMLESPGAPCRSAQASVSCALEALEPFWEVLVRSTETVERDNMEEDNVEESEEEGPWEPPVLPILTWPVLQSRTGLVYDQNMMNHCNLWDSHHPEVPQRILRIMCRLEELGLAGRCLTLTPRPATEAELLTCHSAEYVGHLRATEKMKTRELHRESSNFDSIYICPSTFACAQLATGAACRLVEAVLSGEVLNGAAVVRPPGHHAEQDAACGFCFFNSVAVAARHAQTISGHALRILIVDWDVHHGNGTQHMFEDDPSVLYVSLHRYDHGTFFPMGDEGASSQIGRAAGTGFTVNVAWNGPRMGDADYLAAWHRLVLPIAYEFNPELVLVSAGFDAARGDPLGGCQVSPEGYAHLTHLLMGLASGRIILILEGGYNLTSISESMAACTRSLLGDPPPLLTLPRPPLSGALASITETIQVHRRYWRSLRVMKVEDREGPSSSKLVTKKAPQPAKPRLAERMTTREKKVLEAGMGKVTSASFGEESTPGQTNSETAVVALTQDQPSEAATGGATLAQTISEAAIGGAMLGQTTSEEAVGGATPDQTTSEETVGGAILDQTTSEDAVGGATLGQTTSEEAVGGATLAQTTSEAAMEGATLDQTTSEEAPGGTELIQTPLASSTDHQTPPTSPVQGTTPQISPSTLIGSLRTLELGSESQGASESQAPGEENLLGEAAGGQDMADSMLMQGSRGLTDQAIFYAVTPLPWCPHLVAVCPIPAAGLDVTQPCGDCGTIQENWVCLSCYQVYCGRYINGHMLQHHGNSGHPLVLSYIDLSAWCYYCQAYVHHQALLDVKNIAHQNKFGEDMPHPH
Protocol: as §1, §2

| Structure (SMILES) | inhibition at 1 µM (HDAC1 enzyme) [%] | inhibition at 1 µM (HDAC9 enzyme) [%] | inhibition at 1 µM (HDAC6 enzyme) [%] |
| --- | --- | --- | --- |
| O=C1c2ccc(-c3noc(C(F)(F)F)n3)cc2CN1[C@@H]1CCNC[C@H]1c1ccccc1 (relative stereo) [Example 136, trans-2-(3-phenylpiperidin-4-yl)-5-(5-(trifluoromethyl)-1,2,4-oxadiazol-3-yl)isoindolin-1-one] | 39 | 82 | 94 |
| O=C(C1CC1)N1C[C@@H](N2Cc3ccc(-c4noc(C(F)(F)F)n4)cc3C2=O)[C@H](c2ccccc2)C1 (relative stereo) [Example 11, trans-2-(1-(cyclopropylcarbonyl)-4-phenylpyrrolidin-3-yl)-6-(5-(trifluoromethyl)-1,2,4-oxadiazol-3-yl)isoindolin-1-one] | 70 | 95 | 100 |
| O=C1c2cc(-c3noc(C(F)(F)F)n3)ccc2CN1[C@@H]1CCNC[C@H]1c1ccc(F)c(F)c1 (relative stereo) [Example 46, 2-(trans-3-(3,4-difluorophenyl)piperidin-4-yl)-6-(5-(trifluoromethyl)-1,2,4-oxadiazol-3-yl)isoindolin-1-one] | 94 | 99 | 99 |
| CC(=O)N[C@@H]1CCCC[C@H]1N1Cc2ccc(-c3noc(C(F)(F)F)n3)cc2C1=O (relative stereo) [Example 8, trans-N-(2-(1-oxo-6-(5-(trifluoromethyl)-1,2,4-oxadiazol-3-yl)-1,3-dihydro-2H-isoindol-2-yl)cyclohexyl)acetamide] | 10 | 43 | 98 |
| CN1CCC[C@@H]1C(=O)N[C@@H]1CCCC[C@H]1N1Cc2ccc(-c3noc(C(F)(F)F)n3)cc2C1=O [Example 94, 1-methyl-N-((1R,2R)-2-(1-oxo-6-(5-(trifluoromethyl)-1,2,4-oxadiazol-3-yl)-1,3-dihydro-2H-isoindol-2-yl)cyclohexyl)-D-prolinamide] | 5 | 24 | 99 |
| O=C1CCCN1[C@@H]1CCCC[C@H]1N1Cc2ccc(-c3noc(C(F)(F)F)n3)cc2C1=O (relative stereo) [Example 18, trans-2-(2-(2-oxopyrrolidin-1-yl)cyclohexyl)-6-(5-(trifluoromethyl)-1,2,4-oxadiazol-3-yl)isoindolin-1-one] |  | 47 | 99 |
| O=C1c2ccc(-c3noc(C(F)(F)F)n3)cc2CN1c1ccccc1 [Example 1, 2-phenyl-5-(5-(trifluoromethyl)-1,2,4-oxadiazol-3-yl)isoindolin-1-one] |  | 55 | 8 |

Next, values leading:

| inhibition at 1 µM (HDAC1 enzyme) [%] | inhibition at 1 µM (HDAC9 enzyme) [%] | inhibition at 1 µM (HDAC6 enzyme) [%] | Structure (SMILES) |
| --- | --- | --- | --- |
| 11 | 54 | 100 | O=C(NC1CC1)N[C@@H]1CCCC[C@H]1N1Cc2ccc(-c3noc(C(F)(F)F)n3)cc2C1=O [Example 154, 1-cyclopropyl-3-((1R,2R)-2-(1-oxo-6-(5-(trifluoromethyl)-1,2,4-oxadiazol-3-yl)-1,3-dihydro-2H-isoindol-2-yl)cyclohexyl)urea] |
| 2 | 41 | 74 | O=C1CCCN1[C@H]1COCC[C@@H]1N1Cc2ccc(-c3noc(C(F)(F)F)n3)cc2C1=O [Example 181, 2-((3R,4S)-3-(2-oxopyrrolidin-1-yl)tetrahydro-2H-pyran-4-yl)-6-(5-(trifluoromethyl)-1,2,4-oxadiazol-3-yl)isoindolin-1-one] |
| 13 | 85 | 100 | O=C(N[C@@H]1COCC[C@H]1N1Cc2ccc(-c3noc(C(F)(F)F)n3)cc2C1=O)[C@H]1CC1(F)F [Example 150, (1R)-2,2-difluoro-N-((3S,4R)-4-(1-oxo-6-(5-(trifluoromethyl)-1,2,4-oxadiazol-3-yl)-1,3-dihydro-2H-isoindol-2-yl)tetrahydro-2H-pyran-3-yl)cyclopropanecarboxamide] |
| 8 | 64 | 98 | O=C1CCCN1[C@@H]1COCC[C@H]1N1Cc2ccc(-c3noc(C(F)(F)F)n3)cc2C1=O [Example 177, 2-((3S,4R)-3-(2-oxopyrrolidin-1-yl)tetrahydro-2H-pyran-4-yl)-6-(5-(trifluoromethyl)-1,2,4-oxadiazol-3-yl)isoindolin-1-one] |
| 16 | 42 | 35 | CC1(C(=O)N[C@@H]2CCC[C@H]2N2Cc3ccc(-c4noc(C(F)(F)F)n4)cc3C2=O)COC1 [Example 151, 3-methyl-N-((1R,2R)-2-(1-oxo-6-(5-(trifluoromethyl)-1,2,4-oxadiazol-3-yl)-1,3-dihydro-2H-isoindol-2-yl)cyclopentyl)oxetane-3-carboxamide] |
| 16 | 86 | 98 | O=C(N[C@H]1CCOC[C@@H]1N1Cc2ccc(-c3noc(C(F)(F)F)n3)cc2C1=O)[C@@H]1CC1(F)F [Example 201, (1S)-2,2-difluoro-N-((3R,4S)-3-(1-oxo-6-(5-(trifluoromethyl)-1,2,4-oxadiazol-3-yl)-1,3-dihydro-2H-isoindol-2-yl)tetrahydro-2H-pyran-4-yl)cyclopropanecarboxamide] |
| 4 | 22 | 101 | CN1CC(C)(C(=O)N[C@@H]2CCCC[C@H]2N2Cc3ccc(-c4noc(C(F)(F)F)n4)cc3C2=O)C1 [Example 196, 1,3-dimethyl-N-((1R,2R)-2-(1-oxo-6-(5-(trifluoromethyl)-1,2,4-oxadiazol-3-yl)-1,3-dihydro-2H-isoindol-2-yl)cyclohexyl)azetidine-3-carboxamide] |
|  | 66 | 99 | O=C1CCCN1[C@@H]1CCCC[C@H]1N1Cc2ccc(-c3noc(C(F)(F)F)n3)cc2C1=O [Example 191, 2-((1R,2R)-2-(2-oxopyrrolidin-1-yl)cyclohexyl)-6-(5-(trifluoromethyl)-1,2,4-oxadiazol-3-yl)isoindolin-1-one] |
